# Source: patent US7439251B2, “Methods and compositions for treatment of central and peripheral nervous system disorders and novel compounds useful therefor” (Israel Institute for Biological Research, priority 2002, dated 2008)
# Key:
# [1] = test system: APPs secretion; experiment: APPs secretion in rat primary hippocampal, cortical and spinal cord cultures; format: cell-based; conditions: 100 μM, 1 h
# [2] = test system: rat pheochromocytoma cells transfected with the M1 mAChR
# Experimental: Confluent rat pheochromocytoma cells transfected with the M1 mAChR cultures were detached with trypsin, washed and plated in 24well, 6-well, 60-mm or 100-mm plates that were precoated with rat tail collagen (Sigma, Israel). Several experiments were performed in serum-free medium. For 3-(4,5-dimethylthiazol-2-yl)-2,5-diphenyl-tetrazolium bromide (MIT) assay, cells (1.5×10^4) were plated in 96-well collagen-precoated plates, in serum-free medium, with or without various drugs for 24 hours. For differentiation, cells were grown in the presence of 1% FCS and 1% HS, with addition of 50 ng/ml NGF for 7 days, to cause full differentiation. […] After 7 days, cells were washed and the medium was either replaced to serum-free, or cells were detached and replated in serum-free medium. Cells in serum-free medium were treated either with Aβ peptides that were previously “aged” or with H2O2. Tested compounds were added together with the insults for the indicated time, unless otherwise stated.
# Cells were grown and treated on glass coverslips. After treatments, cells were fixed in cold methanol for 5 min at −20° C. followed by treatment with cold acetone at 4° C. for 2 min and washing in PBS. The coverslips were fluorescently stained with DAPI (4,6-diamidino-2-phenylindole; 5 mg/ml, Sigma, Israel) an intercalating agent that enables visualization of chromatin condensation in the cell nuclei for 15 min at room temperature. Cells were washed three times with PBS, mounted in a solution of glycerol containing 22 mM 1,4 dizabicyclo(2,2,2)octane (Sigma, Israel) to prevent fading, and viewed for nuclear chromatin morphology with a fluorescence microscope. Apoptotic and viable cells were counted (200 cells per coverslip, each experiment was performed in duplicates).
# The TUNEL (Terminal deoxynucleotidyl transferase (TdT) mediated dUTP nick end labeling) method enzymatically labels DNA fragments at the 3′OH ends (representing the DNA strand breaks) with fluorescein-dUPT (Boehringer Mannheim, Germany). Briefly, following treatment, cells grown on Chamber slides were fixed with paraformaldehyde solution (4%) in PBS, pH 7.4 for 30 min at room temperature. Following washing with PBS cells were permeabilized using 0.1% Triton X-100, 0.1% sodium citrate solution, for 2 min on ice (4° C.), washed with PBS and 50 μl of TUNEL reaction mixture was added on each sample for 1 hr at 37° C., in a humidified chamber. Evans Blue reagent (diluted 1:2000 in PBS) was added for 5 min and the slides were viewed with fluorescence microscope.
# Cells were differentiated for 7 days and detached from the plates with Trypsin. 10^6 cells were replated in 50-mm collagen-coated plates in serum-free medium in presence or absence of various treatments. 200-g-centrifuged pellets were prepared and resuspended in 300 μl PBS. 4 ml of cold methanol (−20° C.) were added to each test tube and the fixation was carried out for 15 min at −20° C. Cells were washed in PBS, spun and resuspended in 1 ml PBS. Five microliters of Propidium iodide stock solution (Sigma; 10 mg/ml) and 5 μl of 20 mg/ml solution of RNAse A were added for 5-10 min at room temperature. Fluorescence of individual nuclei was measured using Fluorescence Activated Cell Sorter (FACScan; Becton Dickinson Corp.) excited at 488 nm wavelength and collected through 575±21 nm BP filter. The data were analyzed by Cell Quest software computer system. By this method we were able to measure DNA content of the cells (apoptotic cells have less DNA). Cells in G1 phase of cell cycle are after mitosis and have less DNA than cells in G2/M phase (before and during mitosis). Apoptotic cells were identified as the pre-G1 phase.
# [3] = test system: tau; experiment: tau-1 immunoreactivity in primary cell cultures (western blot); format: cell-based, rat; conditions: cortical and hippocampal cultures, 1-100 μM
# Experimental: Primary cell cultures were grown as described in EXAMPLE 38. Cell supernatants were removed and the cells were washed once in medium prior to the addition of cold phosphate buffre saline ph=7.4 (PBS) solution containing 0.2 mM EDTA. Cells were scraped using a rubber policeman, transferred to Eppendorf tubes, and centrifuged at 4° C. Cell pellets were resuspended in lysis buffer (EDTA 5 mM, Tris 50 mM, Triton 1%, NaCl 150 mM) containing protease inhibitors (5 units/ml apronitin, […] and 0.1 mM PMSF, Sigma) and subjected to centrifugation at 4° C. Supernatants were transferred into Eppendorf tubes and kept at −20° C. till analyzed. The extent of tau-1 immunoreactivity (an antibody that recognizes a non-phosphorylated tau at Ser^199) was determined by western blots.
# [4] = test system: cortical and hippocampal cell culture; experiment: Protection against NMDA-induced cell death in primary rat brain cultures; conditions: for neuroprotective potency against 200 μM NMDA, compared with 20 μM MK801: 100 μM agonist; for prevention of NMDA-induced cell death: 20-24 hrs
# [5] = Passive avoidance in trihexyphenidyl treated rats; format: in vivo, rat; conditions: for Trihexyphenidyl-rats-Passive avoidance, effect: AF292 0.03, 0.05, 0.1, 0.3, 0.5 mg/kg p.o., AF267B 0.5, 1, 5; for Trihexyphenidyl-rats-Passive avoidance, MED: p.o.
# Text: Trihexyphenidyl is a selective M1 muscarinic antagonist that crosses the blood brain barrier and induces memory and learning impairments (Bymaster et al. J Pharmacol Exp Ther 267: 16-24, 1993. Roldan et al Neurosci. Lett. 230: 93-96, 1997; Kimura et al Brain Res. 834: 6-12, 1999).
# Naive Wistar rats were used in the experiments below. The passive avoidance (PA) task is comprised of training (acquisition) phase and a retention phase. In the training procedure each rat was individually placed in the small illuminated compartment and after 60 sec. of familiarization/adaptation, the door to the large compartment was opened and the latency to enter was measured (Initial Latency). Immediately following entry into the dark compartment, the door was closed and inescapable foot shock (0.6 mA for 3 sec) was delivered through the grid floor. A cutoff point of 180 sec was used for initial latency. […] After the acquisition trial the rat was returned to its home cage. Retention of the passive avoidance task was measured 24 h later, by again placing the rat in the light compartment and after a 60 sec adaptation interval, the door was opened and the latency to renter the dark compartment was measured. A cutoff point of 300 sec was used for retention latency.
Compound,"APPs secretion, fold over control [1]",H2O2-induced apoptosis (DAPI) [2],apoptotic cell death induced by starvation (DAPI) [2],apoptotic death during starvation (FACS) [2],β-amyloid 25-35 induced apoptosis (TUNEL) [2],β-amyloid increased apoptotic population (FACS) [2],tau-1 immunoreactivity (non-phosphorylated tau) [3],"neuroprotective potency against 200 μM NMDA, compared with 20 μM MK801 [4]",prevention of NMDA-induced cell death [4],"Trihexyphenidyl-rats-Passive avoidance, effect [5]","Trihexyphenidyl-rats-Passive avoidance, MED [5]","Trihexyphenidyl-rats-Passive avoidance, duration ([5]; rat, in vivo)","potency among the tested agonists ([5]; rat, in vivo)"
"CC1=NCC2(CCN(C)CC2)S1 [AF150(S), 2,8-Dimethyl-1-thia-3,8-diaza-spiro[4.5]dec-2-ene]",2.8 fold,prevented,significantly protect,protected cells from apoptotic death,able to block the apoptosis,reduced the apoptotic population significantly,effective in elevating tau immunoreactivity,slightly less,effective in prevention of cell death,–,–,–,–
"CC[C@@H]1SC2(CCN(C)CC2)NC1=O [AF267B, (S)-2-ethyl-8-methyl-1-thia-4,8-diaza-spiro[4.5]decan-3-one]",2.8 fold,prevented,significantly protect,protected cells from apoptotic death,–,reduced the apoptotic population significantly,effective in elevating tau immunoreactivity,slightly less,effective in prevention of cell death,"0.5, 1, 5 positive effects","MED 0.1-0.5 mg/kg, p.o.",–,–
"CC[C@@H]1SC2(CCNCC2)NC1=O [AF292, (S)-2-Ethyl-1-thia-4,8-diaza-spiro[4.5]decan-3-one]",–,–,–,–,–,–,–,–,–,positive effects,≤ 0.03 mg/kg,LONG DURATION OF ACTION,most potent compound among the tested agonists
